Laboratory results taken from patent publication US11247970B2, “Selective inhibition of gluconeogenic activity” (Dana-Farber Cancer Institute, Inc., priority 2017, dated 2022).

System: primary hepatocytes
Test: Glucose production by primary hepatocytes (glucagon or Ad-PGC-1α)
Assay type: cell-based, mouse
Set-up: glucagon- and PGC-1α-mediated glucose production: dose or concentration left out as unconfirmed
Method: For measurement of acetylation, gene expression and glucose production SR-18292 ([…]) was added to cells overnight and fresh compound was added the following day for additional 3 h before collecting the cells (for total of ˜18 h treatment). Where insulin and glucagon stimulation were performed, the medium was changed to starvation medium (DMEM, 0.2% BSA, 2 mM sodium pyruvate, and 1% penicillin/streptomycin) with fresh compound for the last 3 h and cells were stimulated with either 100 nM insulin or 200 nM glucagon for an extra 1.5 h. For glucose measurements following PGC-1α over expression cells were incubated for the last 3 h in glucose-free medium (phenol-red/glucose free DMEM, 0.2% BSA, 2 mM sodium pyruvate and 20 mM sodium lactate or 10 mM glycerol in case glycerol was used as substrate). For glucose measurements following glucagon stimulation cells were incubated for the last 4 h in the same glucose-free medium that also contained glucagon (200 nM). The glucose level in the medium was measured using a glucose assay kit from Eton Bioscience Inc. by adding […] of assay buffer to […] of medium followed by 15 min incubation at 37° C. Absorbance was measured at 490 nm.
PGC-1α activates hepatic gluconeogenic gene expression, and an increase in its acetylation status reduces expression of both Pck1 and G6pc genes (Rodgers et al., 2005; Yoon et al., 2001). […] Thus, a high-throughput screen with these 252 compounds at different doses was performed. Briefly, Hepatocytes were treated with forskolin for 1.5 hours to induce the expression of both Pck1 and G6pc genes, which mimics the fasting and PGC-1α-mediated gluconeogenic response. The dose response curves were used to calculate an inhibitory activity of the compounds by determining the difference in Ct values between compound treatment and forskolin control at each dose, and provided an estimated potency of the compounds in suppressing Pck1 and G6pc (FIGS. 4, 34). […] To specifically test the inhibitory activity of the remaining small molecule positive hits on PGC-1α-mediated glucose production, adenoviruses to ectopically express PGC-1α in primary hepatocytes were used. Similar to forskolin, PGC-1α overexpression induces gluconeogenic gene expression and promotes glucose release. Primary hepatocytes were treated with the chosen positive hit compounds that could suppress gluconeogenic gene expression, and the concentration of glucose released to the culture medium was measured.

With `Cc1ccc(CN(CC(O)COc2cccc3[nH]ccc23)C(C)(C)C)cc1` (stereo not drawn) [SR-18292, 1-((1H-indol-4-yl)oxy)-3-(tert-butyl(4-methylbenzyl)amino)propan-2-ol] the “glucose release after short treatment” value (3 hr treatment) was “no effect”, the “glucose production from pyruvate and lactate or from glycerol as substrate” value (Ad-PGC-1α hepatocytes) was “decreases glucose production” and the “glucagon- and PGC-1α-mediated glucose production” value (isolated hepatocytes) was “significantly reduced”.
